Measurements reported in patent US11786494B2, “Methods of modulation of branched chain acids and uses thereof” (Baylor College of Medicine, priority 2009, dated 2023).

Experiments:
[1] = target: branched-chain alpha-keto acid dehydrogenase kinase (BDK) (Homo sapiens, UniProt O14874); conditions: Harris et al., 1982; cited from earlier work
[2] = test system: E1α-phospho/E1α, E2, BCATm, BCATc; experiment: Western blotting of BCKD complex and BCAT isozymes in lymphoblast cells; type: cell-based, human; conditions: for phosphorylation state of E1α: CIC 1 mM 2 h alone, or together with phenylbutyrate
BCKDC = target: T1, BCKDC (Homo sapiens, UniProt P12694+P21953); experiment: Leucine oxidation in lymphoblast cells in presence of CIC; type: cell-based; parameters: Transformed lymphoblast cell lines were available from all 5 MSUD patients and from 2 controls to measure BCKDC activity; endogenous in cells; conditions: both control cells, CIC 1 mM
T1 sequence (P12694 46-445): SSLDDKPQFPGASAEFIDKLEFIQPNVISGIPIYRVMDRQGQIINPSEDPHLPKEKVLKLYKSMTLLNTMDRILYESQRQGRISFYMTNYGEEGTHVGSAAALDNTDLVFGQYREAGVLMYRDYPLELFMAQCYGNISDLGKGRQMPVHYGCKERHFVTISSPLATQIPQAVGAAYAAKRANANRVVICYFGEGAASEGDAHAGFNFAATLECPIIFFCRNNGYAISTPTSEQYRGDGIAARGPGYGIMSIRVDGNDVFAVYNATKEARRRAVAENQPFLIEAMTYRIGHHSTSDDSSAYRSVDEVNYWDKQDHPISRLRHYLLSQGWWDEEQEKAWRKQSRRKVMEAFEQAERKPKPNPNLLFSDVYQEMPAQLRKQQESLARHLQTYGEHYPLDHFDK
T1 sequence (P21953 51-392): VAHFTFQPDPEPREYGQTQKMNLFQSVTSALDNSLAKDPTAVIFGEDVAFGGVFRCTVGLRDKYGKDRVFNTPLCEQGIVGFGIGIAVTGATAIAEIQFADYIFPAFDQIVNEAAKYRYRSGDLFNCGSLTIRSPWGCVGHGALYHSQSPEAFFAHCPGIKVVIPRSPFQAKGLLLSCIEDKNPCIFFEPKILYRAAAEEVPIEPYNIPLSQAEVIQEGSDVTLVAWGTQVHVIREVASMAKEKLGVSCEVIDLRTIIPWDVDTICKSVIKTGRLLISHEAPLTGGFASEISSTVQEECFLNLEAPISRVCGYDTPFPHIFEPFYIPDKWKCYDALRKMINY
Protocol: FIGS. 8A-8C. FIGS. 8A and 8B show leucine oxidation in presence of CIC in lymphoblast cells from control subjects (C-660, C-661) and MSUD patients (P-1, -2, -3, -4, -5) untreated or treated with 1 mM phenylbutyrate for 48 h. Leucine oxidation was measured by using radioactive assay as described in Materials and Methods and is expressed in pmol CO2 released/min/mg protein. CIC was added to all reactions in 1 mM concentration. Values are means±SD (n=3), * p≥0.05, **p≥0.01. […] Images are representative of two independent experiments.
Because phenylbutyrate affects E1α phosphorylation state in vivo (see FIG. 5), leucine oxidation was measured in the same cell lines as in FIG. […] with CIC in the assay. […] Changes in BCAT isoenzyme activity also impacts BCKA production, in specific cases. All patient cell lines accumulated more KIC than observed in control cell lines.

[3] = cited from earlier work; for time to peak concentration: metabolites after a dose of 5 g of phenylbutyrate; for mean peak concentration: metabolites after oral dosing of phenylbutyrate; for elimination half-life: oral phenylbutyrate, estimated
[4] = substrate: O=C(O)CCCc1ccccc1; experiment: E1 catalyzed decarboxylase activity (DCPIP assay); type: biochemical; conditions: other: E1 catalyzed decarboxylase activity, [+] Phenylbutyrate
Protocol: (§1) To determine the effect of phenylbutyrate on individual BCAA catabolic enzymes, activities of mitochondrial branched chain amino transferase (BCATm) and BCKDC enzymes were measured with and without phenylbutyrate using purified recombinant enzymes. BCATm generates the BCKA products that are elevated in MSUD and are the substrates for BCKDC. BCATm activity was measured at pH 8.0 and 298 K as described in Example 2. Kinetics of the E1 decarboxylase reaction with and without phenylbutyrate were determined in the presence of an artificial electron acceptor 2, 6-dichlorophenolindophenol (DCPIP). The assay mixture contained 100 mM potassium phosphate, pH 7.5, 2.0 mM MgCl2, 0.2 mM thiamin diphosphate (ThDP) and 0.1 mM DCPIP. The rate of decarboxylation at 30° C. was measured by monitoring the reduction of the dye at 600 nm (24, 25). For the overall BCKDC activity assay, the enzymes were exchanged into phosphate buffer (30 mM potassium phosphate, pH 7.5) containing 5 mM DTT using a PD-10 column and the enzyme concentrations were calculated from the absorption maxima at 280 nm. The protein complex was reconstituted with E1, lipoylated E2 (lip-E2) and E3 at a molar ratio of 12:1:55, in which lip-E2 exists as a 24-mer. The assay mixture contained 30 mM potassium phosphate pH 7.5, 100 mM NaCl, 3 mM NAD^+, 0.4 mM CoA, 2 mM MgCl2, 2 mM DTT, 0.1% Triton X-100, and 2 mM ThDP. The overall reaction was monitored by formation of NADH at 340 nm. The apparent rate constants (kapp) at different substrate concentrations for all of the above assays were determined from the absorption changes at the individual wavelength maximum. The kapp rate constants were fit using the following equation: kapp=kcat[S]/(Km+[S])

[5] = substrate: O=C(O)CCCc1ccccc1; experiment: Overall BCKDC activity assay (reconstituted E1, lip-E2, E3; NADH formation); type: biochemical; conditions: other: Activity of BCKDC, [+] Phenylbutyrate
Protocol: as §1

[6] = substrate α-ketoisocaproate (KIC)
[7] = substrate α-ketoisovalerate (KIV)

For `CC(C)CC(Cl)C(=O)O` (stereo not drawn) [CIC, Alpha-chloroisocaproate], the “inhibition of BDK” value [1] is listed as “known inhibitor”, the “phosphorylation state of E1α” value ([2]; both controls and patients 4 and 5) is listed as “decreases” and the “E2 or BCAT isozyme levels” value ([2]; lymphoblasts, CIC) is listed as “did not have any effect”. The “phosphorylation state of E1α” value ([2]; patients 1, 2 and 3) was “no effect” and the “leucine oxidation activity in the presence of CIC vs alone” value (BCKDC) was “higher activity”.

In the case of `O=C(O)Cc1ccccc1` [phenylacetate], the “time to peak concentration” value [3] is given as “around 3.5 h”, the mean peak concentration [3] is given as 45.3 µg/mL and the elimination half-life [3] is given as 1.3 h.

For `NC(=O)CC[C@H](NC(=O)Cc1ccccc1)C(=O)O` [phenylacetateglutamine], the “time to peak concentration” value [3] is listed as “around 3.5 h”, the mean peak concentration [3] is listed as 62.8 µg/mL and the elimination half-life [3] is listed as 2.4 h.

B1: E1 (unphosphorylated) of BCKDC (Homo sapiens) (protein)
chain 1: SSLDDKPQFPGASAEFIDKLEFIQPNVISGIPIYRVMDRQGQIINPSEDPHLPKEKVLKLYKSMTLLNTMDRILYESQRQGRISFYMTNYGEEGTHVGSAAALDNTDLVFGQYREAGVLMYRDYPLELFMAQCYGNISDLGKGRQMPVHYGCKERHFVTISSPLATQIPQAVGAAYAAKRANANRVVICYFGEGAASEGDAHAGFNFAATLECPIIFFCRNNGYAISTPTSEQYRGDGIAARGPGYGIMSIRVDGNDVFAVYNATKEARRRAVAENQPFLIEAMTYRIGHHSTSDDSSAYRSVDEVNYWDKQDHPISRLRHYLLSQGWWDEEQEKAWRKQSRRKVMEAFEQAERKPKPNPNLLFSDVYQEMPAQLRKQQESLARHLQTYGEHYPLDHFDK
chain 2: VAHFTFQPDPEPREYGQTQKMNLFQSVTSALDNSLAKDPTAVIFGEDVAFGGVFRCTVGLRDKYGKDRVFNTPLCEQGIVGFGIGIAVTGATAIAEIQFADYIFPAFDQIVNEAAKYRYRSGDLFNCGSLTIRSPWGCVGHGALYHSQSPEAFFAHCPGIKVVIPRSPFQAKGLLLSCIEDKNPCIFFEPKILYRAAAEEVPIEPYNIPLSQAEVIQEGSDVTLVAWGTQVHVIREVASMAKEKLGVSCEVIDLRTIIPWDVDTICKSVIKTGRLLISHEAPLTGGFASEISSTVQEECFLNLEAPISRVCGYDTPFPHIFEPFYIPDKWKCYDALRKMINY
B1 showed a Km ([4]; with KIC as substrate) of 24.0 ± 2.0 µM, a kcat ([4]; with KIC as substrate) of 20.2 ± 1.5 min⁻¹ and a Km ([4]; with KIV as substrate) of 22.0 ± 2.0 µM. It also gave a kcat ([4]; with KIV as substrate) of 25.0 ± 2.0 min⁻¹ and a Km ([4]; with KMV as substrate) of 21.0 ± 3.0 µM.

B2: BCKDC (Homo sapiens) (protein)
chain 1: SSLDDKPQFPGASAEFIDKLEFIQPNVISGIPIYRVMDRQGQIINPSEDPHLPKEKVLKLYKSMTLLNTMDRILYESQRQGRISFYMTNYGEEGTHVGSAAALDNTDLVFGQYREAGVLMYRDYPLELFMAQCYGNISDLGKGRQMPVHYGCKERHFVTISSPLATQIPQAVGAAYAAKRANANRVVICYFGEGAASEGDAHAGFNFAATLECPIIFFCRNNGYAISTPTSEQYRGDGIAARGPGYGIMSIRVDGNDVFAVYNATKEARRRAVAENQPFLIEAMTYRIGHHSTSDDSSAYRSVDEVNYWDKQDHPISRLRHYLLSQGWWDEEQEKAWRKQSRRKVMEAFEQAERKPKPNPNLLFSDVYQEMPAQLRKQQESLARHLQTYGEHYPLDHFDK
chain 2: VAHFTFQPDPEPREYGQTQKMNLFQSVTSALDNSLAKDPTAVIFGEDVAFGGVFRCTVGLRDKYGKDRVFNTPLCEQGIVGFGIGIAVTGATAIAEIQFADYIFPAFDQIVNEAAKYRYRSGDLFNCGSLTIRSPWGCVGHGALYHSQSPEAFFAHCPGIKVVIPRSPFQAKGLLLSCIEDKNPCIFFEPKILYRAAAEEVPIEPYNIPLSQAEVIQEGSDVTLVAWGTQVHVIREVASMAKEKLGVSCEVIDLRTIIPWDVDTICKSVIKTGRLLISHEAPLTGGFASEISSTVQEECFLNLEAPISRVCGYDTPFPHIFEPFYIPDKWKCYDALRKMINY
B2 gave a Km ([5]; substrate α-keto-β-methylvalerate (KMV)) of 50.0 ± 3.0 µM, a Km [5, 6] of 41.0 ± 5.0 µM and a kcat [5, 6] of 255.0 ± 10.0 min⁻¹. It also gave a Km [5, 7] of 40.0 ± 5.0 µM and a kcat [5, 7] of 309.0 ± 15.0 min⁻¹.
